Data on 3 molecules can be found in patent US6211173A, “Use of 2,3,4,5-tetrahydro-1H-3-benzazepines for the manufacture of a pharmaceutical composition for the treatment of sleep disorders” (Cenes Limited, priority 1997, dated 2001).

Data set [1] can be described thus: Serum concentration following oral administration in men (pharmacokinetic experiments). The data set is classed as in vivo. As for the experimental part: NNC 0756 (80 mg) and another dopamine D1 receptor antagonist, the compound of Example 4 (25 mg), were administered to two and three men, respectively. Serum concentrations of the compounds were measured 1.5 and 6.0 hours following oral administration of the compound of Example 4 and 1.5 and 8.0-8.8 hours following oral administration of NNC 0756.

Data set [2] relates to dopamine D1 receptor. The following applies: preclinical, rat; cited from earlier work.
The subject of data set [3] is dopamine D1 receptor. To be noted: preclinical, rat; cited from earlier work. This is another data set of the same source.
For data set [4] the following is noted: background statement, no test described; cited from earlier work.

`CN1CCc2cc([N+](=O)[O-])c(O)cc2C(c2cccc3c2OCC3)C1` (single isomer, unassigned; (+)) [Example 4, (+)-5-(2,3-dihydrobenzofuran-7-yl)-7-hydroxy-3-methyl-8-nitro-2,3,4,5-tetrahydro-1H-3-benzazepine]: in data set [1] (25 mg oral, three men, 6 hours after administration vs 1.5 hours), the “serum concentration of the compound of Example 4 relative to the serum concentration measured 1.5 hours after drug administration” value is given as “about 10%”. Besides, the “elimination time compared to NNC 0756” value in data set [1] (compared to the kinetic profile of NNC 0756) is “shorter elimination time”.
With `Oc1cc2c(cc1O)C(c1ccccc1)CNCC2` (centres unmarked) [SKF 38393], in the data set with dopamine D1 receptor [2], the “amount of REM sleep” value is on record as “reduced the amount of REM sleep” and the duration of wakefulness result is reported as “increased the duration of wakefulness”.
For `CN1CCc2cc(Cl)c(O)cc2C(c2cccc3c2OCC3)C1` (single isomer, unassigned; (+)) [NNC 0756, (+)-8-chloro-7-hydroxy-3-methyl-5-(2,3-dihydrobenzofuran-7-yl)-2,3,4,5-tetrahydro-1H-3-benzazepine], the “serum concentration of NNC 0756 relative to the serum concentration measured 1.5 hours after administration” value in data set [1] (80 mg oral, two men, 8.0-8.8 hours after administration vs 1.5 hours) was “about 35%”. Further, in the data set with dopamine D1 receptor [3], the “REM and non-REM sleep” value was “increase in both REM and non-REM sleep”; the “time spent in sleep” value is “markedly enhance the time spent in sleep”. In addition, the half life entry in data set [4] is “relatively long half life”.
